{"source": "paper PMC6471177", "about": "(Pharmaceutics, 2019)", "key": {"[1]": {"details": "cited from earlier work"}, "[2]": {"experiment": "Disappearance of docetaxel in rat intestinal microsomes with LC478", "format": "in vitro ADME", "details": "intestinal microsomes", "method": "(§1) The hepatic and intestinal microsomes were prepared based on a similar reported method.\n(§2) Adding 0.1 M phosphate buffer (pH 7.4) adjusted the total volume as 0.5 mL, and then the components were incubated at 37 °C using a thermomixer at 500 opm. After incubation of 15 and 30 min for the hepatic and intestinal microsomes, respectively, 1 mL of acetonitrile with 5 µg/mL of paclitaxel as an internal standard added to terminate the reaction.\n(§3) The unweighted kinetic data from rat hepatic and intestinal microsomes were fitted using a single-site Michaelis–Menten Equation V = Vmax × [S]/(Km + [S])(4) where [S] is the substrate concentration, Vmax is maximal velocity, and Km is substrate concentration for half-maximal velocity. The CLint was calculated by dividing the Vmax by the Km."}, "[3]": {"experiment": "Disappearance of docetaxel in rat hepatic microsomes with LC478", "format": "in vitro ADME", "details": "hepatic microsomes", "method": "as §1, §2, §3"}, "[4]": {"experiment": "in vivo", "details": "for Funabs (true unabsorbed fraction) / absorbed fraction in the gastrointestinal tract: 24 h", "excerpt": "Male Sprague–Dawley rats at 6–9 weeks old (weighing 200–260 g) were purchased from Charles River Company Korea (Orient, Seoul, Korea). […] All rats were maintained in the same conditions as a reported method.\nFor the oral study, after overnight fasting with free access to water, rats were divided into three subgroups according to the doses of LC478 administered, which were the same as in the intravenous study. […] Other procedures were followed to the intravenous study.\nBased on the standard methods, we calculated the following pharmacokinetic parameters using non-compartmental analysis (WinNonlin®; Professional Edition version 2.1; Pharsight, Mountain View, CA, USA): The total area under the plasma concentration–time curve from time zero to last blood sampling time (AUClast) or time infinity (AUCinf) by log-linear trapezoidal extrapolation method, terminal half-life, time-averaged total body, renal, and non-renal clearances (CL, CLR, and CLNR, respectively), mean residence time (MRT), apparent volume of distribution at a steady state (Vss), apparent oral clearance (CL/F), and apparent volume of distribution during elimination (Vz/F). We directly read the peak plasma concentration (Cmax) and time to reach Cmax (Tmax) from the experimental data.\nThe absorbed fraction of oral dose (Fabs), absolute bioavailability (F), and relative bioavailability (Frel) were calculated by the following equations. (1) F (%)=AUCinf, p.o/AUCinf, i.v×100 (2) Frel (%)=AUCinf with LC478/AUCinf without LC478×100 (3) GI24 h, p.o/100=(1−Fabs)+(F/100×GI24 h, i.v./100)"}, "[5]": {"test_system": "P-gp", "experiment": "in vitro", "details": "rat, pH 7.4", "method": "To evaluate the effect of LC478 on P-gp mediated efflux activity in rat’s small intestine, transport experiments were conducted following the previously reported method. The incubation medium (pH 7.4) involving […], 5 mM KCl, 1.2 mM CaCl2, 1.2 mM MgCl2, 25 mM NaHCO3, 1.6 mM Na2HPO4, 0.4 mM NaH2PO4, 5 mM D-glucose, and 5 mM D-mannitol was used throughout the transport experiments. […] The small intestine (2 cm from the proximal part of jejunum) was removed, opened along the mesenteric border and rinsed immediately in ice-cold buffer (pH 7.4) under carbogen O2/CO2 (95%/5%) bubbling. The specimens were fixed to 0.61 cm^2 surface area of cells in the Ussing chambers without harming the underlying muscle layer and formed two compartments, mucosal (M) and serosal (S) chambers. […] Cumulative corrections were made for previously removed samples and apparent permeability coefficients (Papp, cm/s) were calculated as follows: Papp = Q/A·c·t, where Q is the total amount of the drug permeated throughout the incubation time, A is the diffusion area of the Ussing chamber, c is the initial drug concentration in the donor compartment, and t is the total time of the experiment. Efflux ratios were calculated from Papp values by: Efflux ratio = secretory Papp/absorptive Papp."}, "[6]": {"experiment": "Rat plasma protein binding of docetaxel by equilibrium dialysis", "format": "in vitro ADME", "details": "equilibrium dialysis", "method": "A 1 mL of the plasma was dialyzed against 1 mL of isotonic Sørensen phosphate buffer (pH 7.4) containing 3% dextran (w/v) in a dialysis cell (Spectrum Medical Industries, Laguna Hills, CA, USA) using a Spectra/Por 4 membrane (mol. wt. cutoff 12−14 KDa; Spectrum Medical Industries, USA)."}, "[7]": {"details": "male, Sprague-Dawley, rat, in vivo, po, 20 mg/kg"}, "[8]": {"details": "male, Sprague-Dawley, rat, in vivo, po, 30 mg/kg"}, "[9]": {"details": "male, Sprague-Dawley, rat, in vivo, po, 100 mg/kg"}}}
{"smiles": "CC(=O)O[C@@]12CO[C@@H]1C[C@H](O)[C@@]1(C)C(=O)[C@H](O)C3=C(C)[C@@H](OC(=O)[C@H](O)[C@@H](NC(=O)OC(C)(C)C)c4ccccc4)C[C@@](O)([C@@H](OC(=O)c4ccccc4)[C@H]21)C3(C)C", "note": "[docetaxel]", "values": [{"measurement": "oral bioavailability", "setting": "[1]", "value": "less than 5 % of the oral dose"}, {"measurement": "Vmax for disappearance of docetaxel", "setting": "[2]; 0 µM LC478", "value": "0.109 ± 0.0502", "unit": "nmol/min/0.3 mg protein"}, {"measurement": "Vmax for disappearance of docetaxel", "setting": "[2]; 1 µM LC478", "value": "0.133 ± 0.0343", "unit": "nmol/min/0.3 mg protein"}, {"measurement": "Vmax for disappearance of docetaxel", "setting": "[2]; 5 µM LC478", "value": "0.133 ± 0.0737", "unit": "nmol/min/0.3 mg protein"}, {"measurement": "Vmax for disappearance of docetaxel", "setting": "[2]; 10 µM LC478", "value": "0.105 ± 0.0355", "unit": "nmol/min/0.3 mg protein"}, {"measurement": "Vmax for disappearance of docetaxel", "setting": "[3]; 5 µM LC478", "value": "0.438 ± 0.0578", "unit": "nmol/min/mg protein"}, {"measurement": "Vmax for disappearance of docetaxel", "setting": "[3]; 10 µM LC478", "value": "0.427 ± 0.0411", "unit": "nmol/min/mg protein"}, {"measurement": "CLR,fu (CLR considering the free fraction in plasma)", "setting": "[4]; male, Sprague-Dawley, rat, in vivo", "value": 5.04, "unit": "mL/min/kg"}, {"measurement": "CLR,fu (CLR considering the free fraction in plasma)", "setting": "[4]; male, Sprague-Dawley, rat, in vivo, 30 mg/kg", "value": 5.15, "unit": "mL/min/kg"}, {"measurement": "CLR,fu (CLR considering the free fraction in plasma)", "setting": "[4]; male, Sprague-Dawley, rat, in vivo, 100 mg/kg", "value": 2.55, "unit": "mL/min/kg"}, {"measurement": "CLR", "setting": "[4]; [7]", "value": "3.43 ± 1.15", "unit": "mL/min/kg"}, {"measurement": "Tmax", "setting": "[4]; [7]", "value": 15, "unit": "min"}, {"measurement": "AUC(0-t)", "setting": "[4]; male, Sprague-Dawley, rat, in vivo, po, 20 mg/kg, AUClast", "value": 82.8, "unit": "ng·h/mL"}, {"measurement": "CL/F", "setting": "[4]; male, Sprague-Dawley, rat, in vivo, po, 20 mg/kg, CL/F", "value": "3040 ± 805", "unit": "mL/min/kg"}, {"measurement": "CL renal", "setting": "[4]; male, Sprague-Dawley, rat, in vivo, po, 20 mg/kg, CLR", "value": "3.5 ± 1.1", "unit": "mL/min/kg"}, {"measurement": "Vd/F", "setting": "[4]; male, Sprague-Dawley, rat, in vivo, po, 20 mg/kg, Vz/F", "value": "670 ± 170", "unit": "L/kg"}, {"measurement": "Funabs (true unabsorbed fraction)", "setting": "[4]; [8]", "value": 36.5, "unit": "%"}, {"measurement": "absorbed fraction in the gastrointestinal tract", "setting": "[4]; [8]", "value": 0.635}, {"measurement": "F increased by", "setting": "[4]; [9]", "value": 102, "unit": "%"}, {"measurement": "Frel increased by", "setting": "[4]; [9]", "value": 109, "unit": "%"}, {"measurement": "Funabs (true unabsorbed fraction)", "setting": "[4]; [9]", "value": 20.0, "unit": "%"}, {"measurement": "absorbed fraction in the gastrointestinal tract", "setting": "[4]; [9]", "value": 0.801}, {"measurement": "Tmax", "setting": "[4]; rats, docetaxel 20 mg/kg oral, with 30 mg/kg oral LC478", "value": "30 (15−30) min"}, {"measurement": "Papp B→A at 3 h, 1 µM", "setting": "[5]", "value": "1.08 ± 0.115", "unit": "×10⁻⁶ cm/s"}, {"measurement": "Bound fraction to fresh rat plasma", "setting": "[6]; with 0 μg/mL LC478", "value": "30.6% ± 11.5%"}, {"measurement": "Bound fraction to fresh rat plasma", "setting": "[6]; with 0.1 μg/mL LC478", "value": "33.4% ± 3.59%"}, {"measurement": "Bound fraction to fresh rat plasma", "setting": "[6]; with 10 μg/mL LC478", "value": "29.7% ± 10.1%"}]}
